According to patent US9255090B2, “Heterocyclyl derivatives and their use as prostaglandin D2 receptor modulators” (Actelion Pharmaceuticals Ltd., priority 2012, dated 2016):
pIC50: −log10 of the molar value.

Biological target: hCRTH2 receptor (Homo sapiens (Human), UniProt Q9Y5Y4)
Test: hCRTH2 receptor membranes radioligand (3H-PGD2) displacement assay
Format: binding
Conditions: 3H-PGD2 radioligand displacement, HEK293-hCRTH2 membranes
Method: Biological Assays: Preparation of hCRTH2 Receptor Membranes and Radioligand Displacement Assay:
First, recombinant HEK293-hCRTH2 cells were detached from culture plates into 5 ml buffer A/plate (Buffer A: 5 mM Tris, 1 mM MgCl2-6H2O pH=7.4) using a rubber policeman. Cells were then transferred into centrifugation tubes and centrifuged for 5 min at 400 g. The cell pellet was resuspended in the same buffer and tubes were frozen at −80° C. Cells were thawed and membrane fragments were generated by homogenization using a polytron homogenizer (30 seconds). The membrane fragments were then centrifuged at 3000 g for 20 minutes and resuspended in buffer C (Buffer C: 75 mM Tris, 25 mM MgCl2, 250 mM Saccharose pH 7.4). Aliquots of membrane fragments were stored at −20° C.
Binding assay was performed in a final assay volume of 250 μl. First, 25 μl of test compound, previously diluted in Binding-Buffer (Binding-Buffer: 50 mM Tris-Base, 100 mM NaCl, 1 mM EDTA, 0.1% BSA (protease free), 0.01% NaN3, 10 mM MnCl2, pH 7.0) was placed into each well. After addition of 75 μl Binding-Buffer, 50 μl of the radioligand ^3H-PGD2 (at 2.5 nM (220.000 dpm/well) from ANAWA ART0662) was added to each well. Binding assay was started by addition of 100 μl CRTH2 membrane fragments, reaching a final concentration of 20 μg/well. For non-specific binding, PGD2 was added to the reaction mixture to […] final concentration. This assay mix was incubated for 90 minutes at room temperature and then filtered through a GF/C filter 96-well plate which was pre-soaked for 3 hours in 0.5% polyethyleneimine (PEI). The filter-wells were washed three times with ice cold Binding-Buffer. Then, 40 μl of Microscint-40 (Packard) was added to each well and the retained radioactivity quantified in a Topcount (Packard).

hCRTH2 receptor, sequence (Q9Y5Y4 whole entry): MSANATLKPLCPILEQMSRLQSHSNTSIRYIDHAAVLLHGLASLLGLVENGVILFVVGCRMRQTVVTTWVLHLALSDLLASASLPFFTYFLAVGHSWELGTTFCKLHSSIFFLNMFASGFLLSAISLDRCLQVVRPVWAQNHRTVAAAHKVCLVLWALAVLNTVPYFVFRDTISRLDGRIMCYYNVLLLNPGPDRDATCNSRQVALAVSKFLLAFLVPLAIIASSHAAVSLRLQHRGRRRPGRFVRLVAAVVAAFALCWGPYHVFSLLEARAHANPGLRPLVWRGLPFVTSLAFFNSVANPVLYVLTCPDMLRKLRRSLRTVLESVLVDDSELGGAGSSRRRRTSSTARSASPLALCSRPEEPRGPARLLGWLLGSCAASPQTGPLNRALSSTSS

| Compound | pIC50 |
| --- | --- |
| O=C(O)Cc1cccc(-c2ccc(F)c3c2CN(C(=O)OCc2ccccc2)CC3)c1 [Example 24, 8-(3-Carboxymethyl-phenyl)-5-fluoro-3,4-dihydro-1H-isoquinoline-2-carboxylic acid benzyl ester] | 7.16 |
| COc1ccc(CC(=O)O)cc1-c1ccc(S(C)(=O)=O)c2c1CN(C(=O)OCc1ccccc1)CC2 [Example 25, 8-(5-Carboxymethyl-2-methoxy-phenyl)-5-methanesulfonyl-3,4-dihydro-1H-isoquinoline-2-carboxylic acid benzyl ester] | 6.83 |
| O=C(O)Cc1ccc(OC(F)(F)F)c(-c2ccc(F)c3c2CN(C(=O)[C@@H]2C[C@H]2c2ccccc2)CC3)c1 [Example 26, {3-[5-Fluoro-2-((1R,2R)-2-phenyl-cyclopropanecarbonyl)-1,2,3,4-tetrahydro-isoquinolin-8-yl]-4-trifluoromethoxy-phenyl}-acetic acid] | 8.51 |
| CC(C)Oc1ccc(CC(=O)O)cc1-c1ccc(F)c2c1CN(C(=O)[C@@H]1C[C@H]1c1ccccc1)CC2 [Example 27, {3-[5-Fluoro-2-((1R,2R)-2-phenyl-cyclopropanecarbonyl)-1,2,3,4-tetrahydro-isoquinolin-8-yl]-4-isopropoxy-phenyl}-acetic acid] | 7.89 |
| O=C(O)Cc1ccccc1-c1ccc(F)c2c1CN(C(=O)OCc1ccccc1)CC2 [Example 30, 8-(2-Carboxymethyl-phenyl)-5-fluoro-3,4-dihydro-1H-isoquinoline-2-carboxylic acid benzyl ester] | 6.06 |
| COc1ccc(CC(=O)O)cc1-c1c(F)ccc2c1CN(C(=O)OCc1ccccc1)CC2 [Example 33, 8-(5-Carboxymethyl-2-methoxy-phenyl)-7-fluoro-3,4-dihydro-1H-isoquinoline-2-carboxylic acid benzyl ester] | 6.95 |
| COc1ccc(CC(=O)O)cc1-c1c(F)ccc2c1CN(C(=O)[C@@H]1C[C@H]1c1ccccc1)CC2 [Example 35, {3-[7-Fluoro-2-((1R,2R)-2-phenyl-cyclopropanecarbonyl)-1,2,3,4-tetrahydro-isoquinolin-8-yl]-4-methoxy-phenyl}-acetic acid] | 8.50 |
| COc1ccc(CC(=O)O)cc1-c1c(F)cc(F)c2c1CN(C(=O)[C@@H]1C[C@H]1c1ccccc1)CC2 [Example 38, {3-[5,7-Difluoro-2-((1R,2R)-2-phenyl-cyclopropanecarbonyl)-1,2,3,4-tetrahydro-isoquinolin-8-yl]-4-methoxy-phenyl}-acetic acid] | 7.95 |
| O=C(O)Cc1ccc(-c2ccc(F)c3c2CN(C(=O)OCc2ccccc2)CC3)cc1Cl [Example 40, 8-(4-Carboxymethyl-3-chloro-phenyl)-5-fluoro-3,4-dihydro-1H-isoquinoline-2-carboxylic acid benzyl ester] | 7.54 |
| O=C(O)Cc1ccc(-c2ccc(F)c3c2CN(C(=O)OCc2ccccc2)CC3)cc1 [Example 41, 8-(4-Carboxymethyl-phenyl)-5-fluoro-3,4-dihydro-1H-isoquinoline-2-carboxylic acid benzyl ester] | 7.35 |
| COc1ccc(CC(=O)O)cc1-c1ccc(F)c2c1CN(C(=O)COc1ccccc1)CC2 [Example 43, {3-[5-Fluoro-2-(2-phenoxy-acetyl)-1,2,3,4-tetrahydro-isoquinolin-8-yl]-4-methoxy-phenyl}-acetic acid] | 7.52 |
| COc1ccc(CC(=O)O)cc1-c1ccc(F)c2c1CN(C(=O)COc1ccc(F)cc1)CC2 [Example 44, (3-{5-Fluoro-2-[2-(4-fluoro-phenoxy)-acetyl]-1,2,3,4-tetrahydro-isoquinolin-8-yl}-4-methoxy-phenyl)-acetic acid] | 7.23 |
| CCOCC(=O)N1CCc2c(F)ccc(-c3cc(CC(=O)O)ccc3OC)c2C1 [Example 46, {3-[2-(2-Ethoxy-acetyl)-5-fluoro-1,2,3,4-tetrahydro-isoquinolin-8-yl]-4-methoxy-phenyl}-acetic acid] | 6.11 |
| COc1ccc(CC(=O)O)cc1-c1ccc(F)c2c1CN(C(=O)COC(C)(C)C)CC2 [Example 47, {3-[2-(2-tert-Butoxy-acetyl)-5-fluoro-1,2,3,4-tetrahydro-isoquinolin-8-yl]-4-methoxy-phenyl}-acetic acid] | 6.26 |
| COc1ccc2onc(CC(=O)N3CCc4c(F)ccc(-c5cc(CC(=O)O)ccc5OC)c4C3)c2c1 [Example 49, (3-{5-Fluoro-2-[2-(5-methoxy-benzo[d]isoxazol-3-yl)-acetyl]-1,2,3,4-tetrahydro-isoquinolin-8-yl}-4-methoxy-phenyl)-acetic acid] | 7.27 |
| COc1ccc(CC(=O)O)cc1-c1ccc(F)c2c1CN(C(=O)C1C(C)(C)C1(C)C)CC2 [Example 50, {3-[5-Fluoro-2-(2,2,3,3-tetramethyl-cyclopropanecarbonyl)-1,2,3,4-tetrahydro-isoquinolin-8-yl]-4-methoxy-phenyl}-acetic acid] | 6.57 |
| COc1ccc(CC(=O)O)cc1-c1ccc(F)c2c1CN(C(=O)CCc1cccnc1)CC2 [Example 51, {3-[5-Fluoro-2-(3-pyridin-3-yl-propionyl)-1,2,3,4-tetrahydro-isoquinolin-8-yl]-4-methoxy-phenyl}-acetic acid] | 7.24 |
| COc1ccc(CC(=O)O)cc1-c1ccc(F)c2c1CN(C(=O)C1CC1)CC2 [Example 52, [3-(2-Cyclopropanecarbonyl-5-fluoro-1,2,3,4-tetrahydro-isoquinolin-8-yl)-4-methoxy-phenyl]-acetic acid] | 7.16 |
| COc1ccc(CC(=O)O)cc1-c1ccc(F)c2c1CN(C(=O)CCN1CCCc3ccccc31)CC2 [Example 53, {3-[2-(3-3,4-Dihydro-2H-quinolin-1-yl-propionyl)-5-fluoro-1,2,3,4-tetrahydro-isoquinolin-8-yl]-4-methoxy-phenyl}-acetic acid] | 8.35 |
| COc1ccc(CC(=O)O)cc1-c1ccc(F)c2c1CN(C(=O)CCc1ccccc1C)CC2 [Example 56, {3-[5-Fluoro-2-(3-o-tolyl-propionyl)-1,2,3,4-tetrahydro-isoquinolin-8-yl]-4-methoxy-phenyl}-acetic acid] | 7.38 |
| COc1ccc(CC(=O)O)cc1-c1ccc(F)c2c1CN(C(=O)CCn1cc(C)c3ccccc31)CC2 [Example 57, (3-{5-Fluoro-2-[3-(3-methyl-indol-1-yl)-propionyl]-1,2,3,4-tetrahydro-isoquinolin-8-yl}-4-methoxy-phenyl)-acetic acid] | 7.79 |
| COc1ccc2[nH]cc(CCC(=O)N3CCc4c(F)ccc(-c5cc(CC(=O)O)ccc5OC)c4C3)c2c1 [Example 63, (3-{5-Fluoro-2-[3-(5-methoxy-1H-indol-3-yl)-propionyl]-1,2,3,4-tetrahydro-isoquinolin-8-yl}-4-methoxy-phenyl)-acetic acid] | 7.53 |
| COc1ccc(CC(=O)O)cc1-c1ccc(F)c2c1CN(C(=O)[C@@H]1C[C@H]1c1ccc(Cl)cc1)CC2 [Example 64, (3-{2-[(1R,2R)-2-(4-Chloro-phenyl)-cyclopropanecarbonyl]-5-fluoro-1,2,3,4-tetrahydro-isoquinolin-8-yl}-4-methoxy-phenyl)-acetic acid] | 8.95 |
| COc1ccc(CC(=O)O)cc1-c1ccc(F)c2c1CN(C(=O)[C@@H]1C[C@H]1c1ccccc1F)CC2 [Example 66, (3-{5-Fluoro-2-[(1R,2R)-2-(2-fluoro-phenyl)-cyclopropanecarbonyl]-1,2,3,4-tetrahydro-isoquinolin-8-yl}-4-methoxy-phenyl)-acetic acid] | 8.75 |
| COc1ccc(CC(=O)O)cc1-c1ccc(F)c2c1CN(C(=O)CCn1ncc3ccccc31)CC2 [Example 67, {3-[5-Fluoro-2-(3-indazol-1-yl-propionyl)-1,2,3,4-tetrahydro-isoquinolin-8-yl]-4-methoxy-phenyl}-acetic acid] | 7.67 |
| COc1ccc(CC(=O)O)cc1-c1ccc(Cl)c2c1CN(C(=O)[C@@H]1C[C@H]1c1ccc(Cl)cc1)CC2 [Example 68, (3-{5-Chloro-2-[(1R,2R)-2-(4-chloro-phenyl)-cyclopropanecarbonyl]-1,2,3,4-tetrahydro-isoquinolin-8-yl}-4-methoxy-phenyl)-acetic acid] | 8.43 |
| COc1ccc(CC(=O)O)cc1-c1ccc(Cl)c2c1CN(C(=O)[C@@H]1C[C@H]1c1ccccc1F)CC2 [Example 70, (3-{5-Chloro-2-[(1R,2R)-2-(2-fluoro-phenyl)-cyclopropanecarbonyl]-1,2,3,4-tetrahydro-isoquinolin-8-yl}-4-methoxy-phenyl)-acetic acid] | 8.94 |
| COc1ccc(CC(=O)O)cc1-c1ccc(Cl)c2c1CN(C(=O)CCn1ncc3ccccc31)CC2 [Example 72, {3-[5-Chloro-2-(3-indazol-1-yl-propionyl)-1,2,3,4-tetrahydro-isoquinolin-8-yl]-4-methoxy-phenyl}-acetic acid] | 7.42 |
| COc1ccc(CC(=O)O)cc1-c1ccc(Cl)c2c1CN(C(=O)COCc1ccccc1Cl)CC2 [Example 73, (3-{5-Chloro-2-[2-(2-chloro-benzyloxy)-acetyl]-1,2,3,4-tetrahydro-isoquinolin-8-yl}-4-methoxy-phenyl)-acetic acid] | 7.52 |
